Data reported in US20180296683A1, “COMPOSITIONS AND METHODS FOR DISASSEMBLING AMYLOID FIBRILS” (The Board of Trustees of the University of Illinois, priority 2017, published 2018).

Assays:
Assay type in all cases: biochemical
preformed Aβ40 fibrils [1] = molecular target: T1, preformed Aβ40 fibrils (Homo sapiens, UniProt P05067); experiment: Control incubations with preformed Aβ40 fibrils assessed by AFM and DLS; conditions: 3 days of incubation
T1 construct: Amyloid protein (Aβ40) was purchased from GL Biochem Ltd. (Shanghai, China); purchased GL Biochem Ltd. (Shanghai, China)
Protocol: To evaluate the ability of mP-iAβ5 conjugates to disassemble amyloid fibrils, we conducted experiments in which mP-iAβ5 conjugates were incubated with preformed Aβ40 fibrils. Freshly prepared Aβ40 (15 μM) solutions were preincubated at 37° C. for 24 h, which is sufficiently long for mature fibrils to grow, as evidenced by AFM images and ThT fluorescence assays (FIG. 8). The preformed Aβ40 fibrils solution was then coincubated with 1.0 equiv of mP-iAβ5 conjugates of different molecular weights, and the morphology transformation of the fibril structures was monitored at 37° C. for 3 days by DLS, AFM imaging, and ThT fluorescence (we define an equiv of mP-iAβ5 as the molar ratio of polymer to Aβ40).
The molecular weight of mP-iAβ5 conjugate that completely disassembles preformed Aβ40 fibrils is 166 kDa. […] The disassembly of preformed fibrils by mP-iAβ5 conjugates was also quantitatively analyzed by DLS in solution phase. In agreement with AFM images, DLS results confirmed that all Aβ40 fibrils were transformed into dispersible sub-100 nm structures, and 0% of fibrils remained after 3 days of incubation (FIG. 2i). […] To investigate the effect of the PHPMA polymer backbone without iAβ5 moieties on Aβ40 disassembly, we incubated preformed Aβ40 fibrils in the presence of 1.0 equiv of 166 kDa PHPMA with and without 60.7 equiv of iAβ5 for 3 days.
Atomic Force Microscopy (AFM). Samples for AFM studies were taken directly from the ThT assays, and 10 μL of each sample solution was loaded on freshly cleaved mica surface (Electron Microscopy Sciences, catalog NO. 71856-01). Samples were incubated for 5 minutes and rinsed with 5 drops of molecular biology grade water. The mica surface was blow-dried under nitrogen. AFM images were obtained on a MultiMode V (Bruker, Santa Barbara, USA) microscope in tapping mode. Ultrasharp silicon cantilevers (SCANASYST-ATR, Bruker) were used. All of the images were collected at a scan rate of 1 Hz and scan lines of 512.
Dynamic Light Scattering (DLS). Samples for DLS studies were prepared at the same condition as in ThT assays without adding ThT dye molecules. The DLS studies were carried out using a particle sizer NICOMP 380 ZLS.

Aβ40 = molecular target: T2, Aβ40 (Homo sapiens, UniProt P05067); experiment: Circular dichroism of Aβ40 secondary structure with fibril breakers; conditions: iAβ5 910 μM, 60.7 equiv; Aβ40 15 μM; 3 days
T2 construct: Amyloid protein (Aβ40) was purchased from GL Biochem Ltd. (Shanghai, China); purchased GL Biochem Ltd. (Shanghai, China)
Protocol: We used circular dichroism studies to further confirm the secondary structures of disassembled Aβ40 aggregates in the presence of mP-iAβ5 conjugates, PHPMA, or iAβ5. Aβ40 solutions were incubated alone for 24 h to form fibrils. […] As Aβ40 continues to aggregate, the negative peak at 198 nm was converted to the positive peak around 194 nm and a negative peak around 217 nm.
Fibril breakers (mP-iAβ5 conjugates, PHPMA, or iAβ5) were added to preformed Aβ40 fibrils after 24 h and coincubated for 3 days before the structure characterization by circular dichroism.
Circular Dichroism (CD) spectroscopy. CD spectra of Aβ40 fibril solution incubated without or with fibril breakers (mP-iAβ5 conjugates, PHPMA, or iAβ5) were recorded in a JASCO J-815 Spectrometer (JASCO Co., Tokyo, Japan), using a quartz cuvette (1 mm path length). […] The spectra were taken as the average of three accumulations from 190 and 260 nm at a speed of 50 nm/min. All of the samples were incubated at 37° C. in 10 mM phosphate buffer solution (PBS) with a continuous agitation speed of 567 rpm. Spectra were calibrated by subtracting the buffer or sample solution baseline.

preformed Aβ40 fibrils [2] = molecular target: T1, preformed Aβ40 fibrils; experiment: ThT fluorescence assay of Aβ40 fibril disassembly; conditions: 15 μM Aβ40, PBS pH 7.4, 37° C., 3 days
Protocol: ThT fluorescence assays were conducted in 96-well black plate (Thermo Scientific NUNC, catalog NO. 265301) at 37° C. with continuous shaking (567 rpm) in a BioTek Hybrid H1 plate reader. ThT fluorescence was recorded with 10 minutes reading intervals and 5 s shaking before first read (442 nm excitation, 482 nm emission). All samples were run in quadruple or more. At least three independent experiments were carried out for each ThT assay. Each well contained 10 mM PBS buffer solution (pH 7.4) and 20 μM ThT in a total volume of 200 μL. Aβ40 (15 μM, 1.0 equiv), iAβ5, control polymer 5, and mP-iAβ5 conjugates 4 of different molecular weights were added as needed. The concentrations of added samples were calculated based on Aβ40 (15 μM, 1.0 equiv).
Preparation of Buffered ThT Solution. The ThT solution in 20 mM PBS was freshly prepared before use. […] The concentration of the above solution was determined by UV-Vis at 412 nm (ε=36000 M^−1 cm^−1). Based on the determined concentration of the ThT solution, ultrapure water and 100 mM PBS were further added to dilute the ThT solution to 40 μM in 20 mM PBS, pH 7.4 […]
To each well of 96-well plate, the buffered ThT solution (40 μM, 100 μL) and ultrapure water (80 μL) were added and mixed. […] The samples containing mature fibrils of Aβ40 and modulators were coincubated for another 3 days in plate reader. The fluorescence was monitored by ThT assays.

T1 sequence (P05067 672-711 limits assumed): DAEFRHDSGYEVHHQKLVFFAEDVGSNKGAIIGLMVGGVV
T2 sequence (P05067 672-711 limits assumed): as above

LPFFD [iAβ5]
effect on preformed fibrils according to AFM and DLS (preformed Aβ40 fibrils [1]; 8.1 equiv of iAβ5 per Aβ40): remained unchanged
effect on preformed fibrils according to AFM and DLS (preformed Aβ40 fibrils [1]; 16.7 equiv of iAβ5 per Aβ40): remained unchanged
effect on preformed fibrils according to AFM and DLS (preformed Aβ40 fibrils [1]; 32.5 equiv of iAβ5 per Aβ40): remained unchanged
effect on preformed fibrils according to AFM and DLS (preformed Aβ40 fibrils [1]; 60.7 equiv of iAβ5 per Aβ40): remained unchanged
effect on preformed fibrils according to AFM and DLS (preformed Aβ40 fibrils [1]; 81.3 equiv of iAβ5 per Aβ40): remained unchanged
secondary structure by CD after coincubation with preformed Aβ40 fibrils (Aβ40): remain β-sheet structures
ThT intensity during coincubation with Aβ40 fibrils (preformed Aβ40 fibrils [2]): not accompanied by the decreased ThT intensity
